We go through two compounds from US20190365626A1, “HIGHLY EFFECTIVE PHOTOPROTECTIVE AGENTS” (3V Sigma S.P.A., priority 2018, published 2019).

Bounds are passed on as bounds.

Data set [1] can be described thus: specific extinction E^11 (1% solution, 1 cm optical path). Type of data set: physicochemical. To be noted: at 328 nm; solution containing 1% of the product, optical path of 1 cm. An excerpt: The efficacy of UV absorbers is characterised by the parameter E^11 (or E11), which corresponds to the extinction value measured at the maximum absorption wavelength of a solution containing 1% of the product in question, measured with an optical path of 1 cm. Such extinction is called “specific extinction”.

Data set [2] can be described thus: Solubility Test in emollients (cosmetic solvents). Type of data set: physicochemical. As to the method: The solubility of the sunscreens obtained in example 2 and (comparative) example 3 were evaluated in various emollients commonly used in suncare and daily skincare products: C12-15 alkyl benzoate, dibutyl adipate, caprylic/capric triglyceride and ethylhexyl salicylate.

Setting [3] is: in Caprylic/Capric Triglyceride.

Take `CCCCC(CC)COC(=O)c1ccc(Nc2nc(Nc3ccc(-c4nc5cc(C(C)(C)CC)ccc5o4)cc3)nc(Nc3ccc(-c4nc5cc(C(C)(C)CC)ccc5o4)cc3)n2)cc1` (stereo not shown) [Example 2]: in data set [1], the “E^11 extinction” value was 1431. Besides, the solubility in data set [2] (in C12-15 Alkyl Benzoate) was 15% w/w %; in data set [2] (setting [3]), 15% w/w %; in data set [2] (in Dibutyl Adipate) it was 20% w/w %; in data set [2] (in Ethylhexyl Salicylate), 25% w/w %.

`CCCCC(CC)COC(=O)c1ccc(Nc2nc(Nc3ccc(-c4nc5cc(C(C)(C)C)ccc5o4)cc3)nc(Nc3ccc(-c4nc5cc(C(C)(C)C)ccc5o4)cc3)n2)cc1` (stereo not shown) [Example 3]: the “E^11 extinction” value in data set [1] was determined as 1395. For the same compound, the solubility is 5% w/w % in data set [2] (in C12-15 Alkyl Benzoate), <5% w/w % in data set [2] (setting [3]), 5% w/w % in data set [2] (in Dibutyl Adipate) and 10% w/w % in data set [2] (in Ethylhexyl Salicylate).
